Experiment [1] relates to fibrin in human carotid endarterectomy specimens. Description: Ex vivo functional probe assay of human carotid endarterectomy specimens. The conditions noted are these: compared to non-binding probe ^68Ga-22; 12 patients; P<0.05. How it is done: (§1) Twelve discarded surgical specimens from asymptomatic patients who underwent elective carotid endarterectomy at Massachusetts General Hospital were obtained and used in ex vivo studies described herein. Samples were processed for histology, autoradiography, and probe binding assay as described above (Examples 6 and 13).
(§2) Discarded surgical specimens were embedded in optimal cutting temperature compound, snap-frozen, and stored at −80° C. before further analysis. Alternating consecutive cryosections were processed for histology and autoradiography; triplicate tissue samples with 50 μm gap in between were used for these experiments. The remaining tissue samples were processed for functional probe assay.
For functional probe assay, samples were thawed at room temperature, weighed (8-15 mg per sample), cut into duplicates, and placed into tubes containing 111-148 kBq (3-4 μCi)^68Ga-20 or the non-fibrin binding control probe ^68Ga-22 in 1 mL PBS. The mixture was shaken for 45 minutes at room temperature. After centrifugation, supernatant (sup-1) was removed, kept for further analysis, and tissue samples were washed with PBS (1 mL); this procedure was repeated twice for each sample. Wash solutions (wash-1 and wash-2) were kept for further analysis. Activities in tissue samples and solutions sol-1, wash-1, and wash-2 were measured on a gamma counter. Percent uptake was calculated as follows: […]

The target in experiment [2] is T1, fibrin in human carotid endarterectomy specimens (Homo sapiens, UniProt P02671+P02675+P02679).
T1 construct: discarded surgical specimens from asymptomatic patients who underwent elective carotid endarterectomy; from tissue; host or cells: human carotid endarterectomy specimens (cryosections or tissue pieces)
T1 sequence (P02671 36-644 isoform P02671-2 limits assumed): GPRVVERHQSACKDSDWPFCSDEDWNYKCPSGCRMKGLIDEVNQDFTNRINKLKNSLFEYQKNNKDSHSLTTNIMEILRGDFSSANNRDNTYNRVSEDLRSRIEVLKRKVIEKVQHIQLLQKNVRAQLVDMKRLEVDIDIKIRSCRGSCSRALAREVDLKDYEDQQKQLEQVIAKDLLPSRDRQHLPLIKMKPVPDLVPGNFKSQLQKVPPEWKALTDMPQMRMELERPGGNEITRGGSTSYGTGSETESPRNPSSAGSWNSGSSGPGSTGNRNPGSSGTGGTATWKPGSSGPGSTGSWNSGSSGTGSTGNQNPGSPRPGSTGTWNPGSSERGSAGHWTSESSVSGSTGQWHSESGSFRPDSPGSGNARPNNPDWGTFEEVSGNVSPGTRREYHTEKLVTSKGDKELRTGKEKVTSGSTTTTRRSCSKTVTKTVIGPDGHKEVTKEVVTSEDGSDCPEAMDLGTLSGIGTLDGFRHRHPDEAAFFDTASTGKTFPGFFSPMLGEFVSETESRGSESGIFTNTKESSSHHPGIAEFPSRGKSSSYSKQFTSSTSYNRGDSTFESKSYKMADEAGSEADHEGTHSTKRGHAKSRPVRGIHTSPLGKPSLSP
T1 sequence (P02675 45-491 limits assumed): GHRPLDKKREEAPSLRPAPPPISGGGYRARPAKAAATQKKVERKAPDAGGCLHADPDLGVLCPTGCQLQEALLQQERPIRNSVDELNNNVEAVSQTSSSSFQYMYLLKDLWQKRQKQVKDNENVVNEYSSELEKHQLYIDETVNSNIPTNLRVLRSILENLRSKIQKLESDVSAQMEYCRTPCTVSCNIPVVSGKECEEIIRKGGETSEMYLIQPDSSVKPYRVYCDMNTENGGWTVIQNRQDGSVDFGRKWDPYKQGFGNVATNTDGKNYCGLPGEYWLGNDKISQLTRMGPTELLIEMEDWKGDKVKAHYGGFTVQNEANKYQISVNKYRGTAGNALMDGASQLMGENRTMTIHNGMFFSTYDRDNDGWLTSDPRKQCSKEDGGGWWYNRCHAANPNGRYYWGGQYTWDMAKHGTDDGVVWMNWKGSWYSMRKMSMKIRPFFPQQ
T1 sequence (P02679 27-437 isoform P02679-2 limits assumed): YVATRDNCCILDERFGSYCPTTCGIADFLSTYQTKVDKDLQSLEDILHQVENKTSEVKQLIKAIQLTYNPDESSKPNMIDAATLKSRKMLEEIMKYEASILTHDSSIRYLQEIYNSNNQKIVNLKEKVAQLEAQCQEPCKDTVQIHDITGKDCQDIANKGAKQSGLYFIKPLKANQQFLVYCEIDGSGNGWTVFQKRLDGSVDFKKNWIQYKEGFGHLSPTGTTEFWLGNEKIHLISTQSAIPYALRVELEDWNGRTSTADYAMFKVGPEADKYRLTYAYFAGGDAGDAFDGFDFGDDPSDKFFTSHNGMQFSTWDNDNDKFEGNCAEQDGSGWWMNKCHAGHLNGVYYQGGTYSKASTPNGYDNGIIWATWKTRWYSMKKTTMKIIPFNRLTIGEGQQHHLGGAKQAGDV
Description: Ex vivo autoradiography of human carotid endarterectomy specimens. The conditions noted are these: compared to non-binding probe ^68Ga-22; 12 patients; P<0.05. How it is done:
as §1, §2
For autoradiography, three 30 μm-thick sections were incubated with ^68Ga-20 or non-fibrin binding control probe ^68Ga-22 for 45 minutes on a lab shaker at room temperature. Autoradiography was performed after three washes of PBS. The exposure time was 2 minutes.

“Also recorded” adds a separate entry of the source. *1 amine or outer side, *2 acyl side, *3 side chain or, on linkers, in order; H or OH if unused. Where a SMILES comes first, the peptide text is derived from it. Bridges are numbered along the chain shown (N, C = ends). [ ]: non-standard residue; d: D form. The star is where a group is joined. NODAGA = O=C(O)CN1CCN(CC(=O)O)CCN(C(CCC(=O)*)C(=O)O)CC1; Tyr(3-Cl) = N[C@@H](Cc1ccc(O)c(Cl)c1)C(=O)O; X1 = O=C([C@@H]1CC(O)CN1[*:1])[*:2]

For `CC[C@H](C)[C@H](NC(=O)[C@H](Cc1cnc[nH]1)NC(=O)[C@@H]1CSSC[C@H](NC(=O)[C@@H](CCC(=O)O)NC(=O)[C@H](Cc2ccc(O)cc2)NC(=O)CCC(C(=O)O)N2CCN(CC(=O)O)CCN(CC(=O)O)CC2)C(=O)N2CC(O)C[C@H]2C(=O)N[C@@H](Cc2ccc(O)c(Cl)c2)C(=O)NCC(=O)N[C@@H](CC(C)C)C(=O)N1)C(=O)N[C@H](CCC(N)=O)C(N)=O` (some centres unmarked) [Compound ^68Ga-20, metal not drawn] ({NODAGA}-Y[dE]C[X1][Tyr(3-Cl)]GLCHI[dQ]-NH2; disulfide 3-8), in experiment [1], the “uptake, functional probe assay” value was “variable but significantly increased; also recorded: significantly higher uptake”. In addition, the “uptake, autoradiography” value in experiment [2] is given as “variable but significantly increased; also recorded: significantly higher uptake”.

Source of the values: patent publication US20240115744A1, “FIBRIN-BINDING COMPOUNDS FOR IMAGING AND TREATMENT” (Collagen Medical, LLC, priority 2019, published 2024).
